Tests used:
[1] = tested on: blood vessel density in bFGF/VEGF-treated CAMs; experiment: Chorioallantoic membrane (CAM) assay; type: in vivo; conditions: 5 μM SHetA2
Experimental: FIG. 8. Effect of 5 μM SHetA2 on blood vessel density in the CAM assay. The mean±SEM blood vessel density per treatment as compared to bFGF/VEGF-treated CAMs; *=p<0.05 and **=p<0.001 as compared to bFGF/VEGF-treated CAMs as determined by one-way ANOVA and Neuman-Keuls post-test.
The CAM assay that was used is based upon the original procedure by Jakob et al. (36) with modifications made by our laboratory (37, 38) (see FIG. 8).

[2] = tested on: organotypic cultures of normal endometrial cells; experiment: Chemoprevention in DMBA-treated endometrial organotypic cultures; type: cell-based; conditions: histology and karyometric analysis
Excerpt: Untreated: The specimen is cellular with both surface and mid-gel cells presence in abundance. Two cell types are clearly present. One appears to be stromal. The nuclei are thin and spindle shaped and the cytoplasm is similar. When cut in cross-section the nuclei are very small and round and hyperchromatic. The other cells have large, oval to almost boxcar nuclei with small nucleoli and abundant cytoplasm. Numerous mitosis are present. The epithelial cells are almost syncitial in nature and appear to cling to one another. With DMBA Carcinogen: The specimen is cellular. The cells present have lost their cytoplasm. There is more pleomorphism of the cells and many are very hyperchromatic. Mitoses are very numerous-approximately 2× the number in untreated. Cells no longer are together but are distinct one from another. Stromal cells intermix with the epithelial cells. […]
FIG. 19 illustrates a typical experiment in which organotypic cultures of normal endometrial cells were treated with a carcinogen called DMBA and developed the cancer phenotype. […] All segmented nuclei were then subjected to texture feature extraction using TICAS software, resulting in 95 texture features for each nucleus that were subjected to quantitative analysis.

CC1(C)CC(C)(C)c2cc(NC(=S)Nc3ccc([N+](=O)[O-])cc3)ccc2S1 [SHetA2]
Angiogenesis (blood vessel density) in CAM assay [1]: inhibits angiogenesis | Development of the cancer phenotype after DMBA carcinogen [2]: prevented the development of this phenotype
